Assay results from patent US20250017207A1 (priority 2021, published 2025).
≈ marks a conversion by molar mass, not a printed value.

Assays:
Type in all cases: cell-based
[1] = tested on: Fusarium graminearum; experiment: microbe, parasite or virus in culture; conditions: 72 h, read-out: EC50 Value
[2] = tested on: Fusarium proliferatum; experiment: Petri plate test, inhibition of mycelial growth (NY/T 1156.2-2006); conditions: 72 h, mycelial growth on PDA plates, 25° C., three days in darkness
Excerpt: Certain mixture compositions according to the present invention may show a synergistic effect. This occurs whenever the action of an active ingredient combination is greater than the sum of the actions of the individual components. The combined toxicity of two agents can be evaluated by the Co-Toxicity Coefficient (CTC) according to the Sun-YP method (Yun-Pei, Sun. “Toxicity Index-An Improved Method of Comparing the Relative Toxicity of Insecticides.” Journal of Economic Entomology 1(1950):45-53.). A CTC value of less than 80 indicates an antagonistic effect, a CTC value of 80-120 indicates an additive effect, and a CTC value of greater than or equal to 120 indicates a synergistic effect.
Component A represents standard Al, and component B represents the component to be mixed with the standard Al. • ATI (Measured toxicity index of a mixture)=(Standard Al's EC50/Mixture's EC50)*100 • TTI (Theoretical toxicity index of a mixture)=(TIA*PA+TIB*PB)*100 • TIA (Toxicity index of component A)=the EC50 of component A/the EC50 of component A • PA: Percentage of component A in the mixture • TIB (Toxicity index of component B)=the EC50 of component A/the EC50 of component B • PB: Percentage of component B in the mixture […]

[3] = tested on: Gibberella fujikuroi; experiment: microbe, parasite or virus in culture; conditions: Fusarium fujikuroi, 72 h, read-out: EC50 Value

For `O=C(N[C@@H]1CC[C@@H]1c1ccc(Cl)cc1Cl)c1cccnc1C(F)(F)F` [cylcobutrifluram, N-[(1,2 cis)-2-(2,4-dichlorophenyl)cyclobutyl]-2-(trifluoromethyl)pyridine-3-carboxamide], the EC50 [1] was 0.0222 µg/mL (≈ 0.057 µM), the EC50 [2] was 0.882 µg/mL and the EC50 [3] was 0.75 µg/mL (≈ 1.93 µM).
With `CCOC(=O)/C(C#N)=C(\N)c1ccccc1` [PHM, (Z)-ethyl 2-cyano-3-amino-3-phenylacrylate] the EC50 [1] was 0.0307 µg/mL (≈ 0.142 µM), the EC50 [2] was 3.08 µg/mL and the EC50 [3] was 0.197 µg/mL (≈ 0.91 µM).
